The text below walks through data of patent publication US10689673B2, “Bioconversion process for producing nylon-7, nylon-7,7 and polyesters” (INVISTA NORTH AMERICA S.A.R.L., priority 2011, dated 2020).

Bounds are passed on as bounds.

Assay [1] has as its target T1, Haemophilus influenzae YciA thioesterase (Haemophilus influenzae, UniProt P44886).
T1 construct: made in house; host or cells: E. coli BL21 (DE3), cell-free extract
Description: Biotransformation of pimeloyl-CoA to pimelic acid with YciA thioesterase cell free extract. Type of assay: biochemical. To be noted: 1 mM substrate, ~15 g/L whole cell equivalents, pH 7.5, 20° C., after 1 hour. As for the experimental part:
Biotransformations were carried out in a final volume of 2 mL. The biotransformations comprised of 1 mM substrate, 200 mM KCl and 50 mM potassium Hepes (pH 7.5). Negative controls comprised of cells harbouring the empty vector The biocatalyst was charged as a cell free extract to give a final concentration of ˜15 g/L whole cell equivalents. The reactions were carried out at ambient temperature (20° C.) in 15 mL falcon tubes with stirring. Each biotransformation was sampled after 1 h, 4 h and 24 h and analysed by HPLC (Agilent 1100) on a Phenomenex Luna C18 250×4.6 mm, 5 micron column. […] The filtrates were analysed by HPLC at 260 nm for the disappearance of pimeloyl-CoA (Rt 12.39 mins) and the formation of CoA (Rt 7.98 minutes), both which absorbs strongly at this wavelength, while pimlic acid was not detectable by UV at 260 nm. Pimelic acid formation was confirmed by LC-MS.

For assay [2], the target named is T2, ACOT4 peroxisomal acyl-CoA thioesterase 4 (Mus musculus, UniProt Q8BWN8).
T2 construct: His tag; host or cells: E. coli
T2 sequence (Q8BWN8 1-421): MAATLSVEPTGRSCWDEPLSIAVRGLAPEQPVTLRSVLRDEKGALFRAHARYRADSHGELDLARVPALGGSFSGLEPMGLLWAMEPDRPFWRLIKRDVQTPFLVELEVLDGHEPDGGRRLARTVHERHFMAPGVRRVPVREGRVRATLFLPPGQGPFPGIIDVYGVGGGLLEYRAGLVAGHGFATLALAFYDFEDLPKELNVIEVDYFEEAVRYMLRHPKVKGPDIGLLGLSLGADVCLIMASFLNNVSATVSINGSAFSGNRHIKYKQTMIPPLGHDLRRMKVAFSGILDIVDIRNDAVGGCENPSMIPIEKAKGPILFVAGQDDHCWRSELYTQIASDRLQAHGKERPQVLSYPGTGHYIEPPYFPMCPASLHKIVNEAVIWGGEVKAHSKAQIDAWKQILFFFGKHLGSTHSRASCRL
To be noted: at concentrations up to 500 μM; cited from earlier work.

In assay [3] the target is T3, ACOT5 (formerly PTE-1c) (Mus musculus, UniProt Q6Q2Z6).
T3 construct: His tag; host or cells: E. coli
T3 sequence (Q6Q2Z6 1-421): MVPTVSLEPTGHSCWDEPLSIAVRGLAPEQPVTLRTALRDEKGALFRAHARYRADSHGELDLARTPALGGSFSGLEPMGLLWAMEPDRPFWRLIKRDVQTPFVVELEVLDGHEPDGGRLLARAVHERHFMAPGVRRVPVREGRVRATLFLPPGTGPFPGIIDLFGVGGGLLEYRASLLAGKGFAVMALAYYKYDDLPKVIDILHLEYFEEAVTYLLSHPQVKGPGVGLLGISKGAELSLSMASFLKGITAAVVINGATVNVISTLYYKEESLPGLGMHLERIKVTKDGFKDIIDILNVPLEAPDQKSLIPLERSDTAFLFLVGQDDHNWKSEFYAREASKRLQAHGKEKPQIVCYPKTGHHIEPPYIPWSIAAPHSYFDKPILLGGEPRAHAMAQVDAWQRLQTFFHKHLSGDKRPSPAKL
To be noted: cited from earlier work.

Assay [4] has as its target T4, ACOT3 (formerly PTE-1a) (Mus musculus, UniProt Q9QYR7).
T4 construct: His tag; host or cells: E. coli
T4 sequence (Q9QYR7 1-432): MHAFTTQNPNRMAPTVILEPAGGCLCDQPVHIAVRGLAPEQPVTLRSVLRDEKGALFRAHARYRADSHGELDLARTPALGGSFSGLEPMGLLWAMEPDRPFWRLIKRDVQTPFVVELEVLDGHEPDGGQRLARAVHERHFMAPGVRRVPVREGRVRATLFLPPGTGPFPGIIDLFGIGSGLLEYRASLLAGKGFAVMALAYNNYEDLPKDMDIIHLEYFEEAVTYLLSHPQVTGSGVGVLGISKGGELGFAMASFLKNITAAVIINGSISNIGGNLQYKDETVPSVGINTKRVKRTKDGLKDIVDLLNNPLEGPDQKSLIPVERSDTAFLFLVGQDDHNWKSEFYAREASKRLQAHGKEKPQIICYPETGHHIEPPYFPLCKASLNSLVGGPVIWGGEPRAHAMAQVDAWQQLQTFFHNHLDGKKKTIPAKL
To be noted: cited from earlier work.

The target of assay [5] is T5, Citrobacter amalonaticus methylaspartate ammonia lyase (MAL) (Citrobacter amalonaticus, UniProt O66145).
T5 construct: made in house; host or cells: E. coli BL21 (DE3), pET21-a, cell-free extract
T5 sequence (O66145 whole entry): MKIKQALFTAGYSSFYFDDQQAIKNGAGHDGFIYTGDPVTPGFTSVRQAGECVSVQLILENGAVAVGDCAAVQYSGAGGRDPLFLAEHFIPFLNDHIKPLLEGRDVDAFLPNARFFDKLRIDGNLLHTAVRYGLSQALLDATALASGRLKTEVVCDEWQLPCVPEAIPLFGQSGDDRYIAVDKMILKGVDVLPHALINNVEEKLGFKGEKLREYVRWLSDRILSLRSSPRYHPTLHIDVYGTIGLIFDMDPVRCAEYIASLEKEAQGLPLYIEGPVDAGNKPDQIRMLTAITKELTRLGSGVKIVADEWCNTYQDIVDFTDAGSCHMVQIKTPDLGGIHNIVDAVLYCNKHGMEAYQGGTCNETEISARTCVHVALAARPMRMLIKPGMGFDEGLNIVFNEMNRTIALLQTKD
In words: Biotransformation of beta-methyl aspartate with I4 lyase strain cell extract. The following applies: 10 mM substrate, 5 or 20 g/L whole cell equivalent, 30° C., after 1 hour. It is filed as biochemical.

In assay [6] the target is T6, Clostridium tetanomorphum methylaspartate ammonia lyase (MAL) (Clostridium tetanomorphum, UniProt Q05514).
T6 construct: made in house; host or cells: E. coli BL21 (DE3), pET21-a, cell-free extract
T6 sequence (Q05514 whole entry): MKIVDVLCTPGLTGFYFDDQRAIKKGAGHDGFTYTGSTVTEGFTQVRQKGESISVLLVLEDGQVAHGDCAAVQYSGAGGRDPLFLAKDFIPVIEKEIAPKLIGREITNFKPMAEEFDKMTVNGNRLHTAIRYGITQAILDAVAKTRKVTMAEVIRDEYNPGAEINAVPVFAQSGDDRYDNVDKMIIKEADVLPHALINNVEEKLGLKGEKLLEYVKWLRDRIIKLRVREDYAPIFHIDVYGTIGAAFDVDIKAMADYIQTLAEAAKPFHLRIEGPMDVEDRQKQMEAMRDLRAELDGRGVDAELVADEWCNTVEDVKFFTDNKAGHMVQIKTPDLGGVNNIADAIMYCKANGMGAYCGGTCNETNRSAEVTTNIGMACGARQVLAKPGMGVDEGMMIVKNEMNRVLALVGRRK
In words: Biotransformation of beta-methyl aspartate with I5 lyase strain cell extract. Type of assay: biochemical. The following applies: 10 mM substrate, 5 or 20 g/L whole cell equivalent, 30° C., after 1 hour.

Assay [7] has as its system Aspergillus oryzae methylaspartate ammonia lyase (MAL). The following applies: 10 mM substrate, 5 or 20 g/L whole cell equivalent, 30° C., 1, 5 and 18 hours.
In assay [8] the target is T7, Aminoadipate aminotransferase (Q64602) (Bos taurus, UniProt Q5E9N4).
T7 construct: host or cells: bovine kidney
T7 sequence (Q5E9N4 30-425, one chain of several): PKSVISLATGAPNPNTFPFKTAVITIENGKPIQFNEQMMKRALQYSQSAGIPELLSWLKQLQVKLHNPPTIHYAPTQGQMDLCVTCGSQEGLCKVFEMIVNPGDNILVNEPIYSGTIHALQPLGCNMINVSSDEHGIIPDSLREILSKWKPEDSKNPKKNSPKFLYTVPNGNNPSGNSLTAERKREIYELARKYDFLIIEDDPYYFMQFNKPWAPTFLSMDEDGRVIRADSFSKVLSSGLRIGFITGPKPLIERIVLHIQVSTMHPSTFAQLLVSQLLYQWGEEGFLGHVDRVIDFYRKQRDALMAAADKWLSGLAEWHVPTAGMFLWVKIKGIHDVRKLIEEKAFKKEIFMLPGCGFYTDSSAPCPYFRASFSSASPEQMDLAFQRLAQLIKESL
The following applies: cited from earlier work.

Assay [9] concerns PauA pimeloyl-CoA ligase (EC 6.2.1.14). To be noted: substrate of pauA; pimelate = 100%; cited from earlier work.
In assay [10] the target is T8, Nocardia sp. carboxylic acid reductase (CAR) (Nocardia iowensis, UniProt Q6RKB1).
T8 construct: made in house; host or cells: E. coli BL21, cell-free extract
T8 sequence (Q6RKB1 2-1174): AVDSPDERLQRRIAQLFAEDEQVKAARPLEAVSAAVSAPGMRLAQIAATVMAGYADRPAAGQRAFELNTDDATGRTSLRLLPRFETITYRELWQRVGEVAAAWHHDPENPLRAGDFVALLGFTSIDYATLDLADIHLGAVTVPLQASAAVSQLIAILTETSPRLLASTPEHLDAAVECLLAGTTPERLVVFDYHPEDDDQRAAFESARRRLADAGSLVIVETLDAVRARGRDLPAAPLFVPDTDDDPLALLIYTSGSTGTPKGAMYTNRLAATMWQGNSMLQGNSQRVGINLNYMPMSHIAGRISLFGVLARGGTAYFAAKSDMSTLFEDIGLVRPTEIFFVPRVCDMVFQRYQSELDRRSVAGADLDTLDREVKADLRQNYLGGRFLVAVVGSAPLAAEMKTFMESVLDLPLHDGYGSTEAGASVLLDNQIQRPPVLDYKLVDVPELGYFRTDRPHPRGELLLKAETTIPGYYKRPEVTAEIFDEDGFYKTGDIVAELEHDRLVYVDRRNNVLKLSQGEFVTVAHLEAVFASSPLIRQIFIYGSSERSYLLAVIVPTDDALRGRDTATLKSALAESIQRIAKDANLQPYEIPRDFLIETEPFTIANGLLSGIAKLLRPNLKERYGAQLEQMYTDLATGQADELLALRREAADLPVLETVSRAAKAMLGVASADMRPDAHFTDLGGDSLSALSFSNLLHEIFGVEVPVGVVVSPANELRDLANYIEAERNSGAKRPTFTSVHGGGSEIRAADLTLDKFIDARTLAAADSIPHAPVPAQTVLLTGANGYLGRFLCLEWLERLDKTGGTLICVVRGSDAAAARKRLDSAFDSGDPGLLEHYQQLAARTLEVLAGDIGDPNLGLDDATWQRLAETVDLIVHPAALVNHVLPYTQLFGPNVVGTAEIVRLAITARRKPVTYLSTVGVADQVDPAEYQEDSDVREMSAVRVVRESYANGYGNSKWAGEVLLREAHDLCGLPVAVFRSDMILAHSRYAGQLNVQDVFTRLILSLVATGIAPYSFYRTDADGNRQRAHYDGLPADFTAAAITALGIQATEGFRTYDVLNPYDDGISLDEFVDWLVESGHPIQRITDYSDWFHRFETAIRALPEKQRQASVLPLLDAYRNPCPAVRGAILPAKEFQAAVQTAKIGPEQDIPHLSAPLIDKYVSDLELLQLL
In words: Carboxylic acid reductase (CAR) spectrophotometric assay of NADPH consumption. It is filed as biochemical. From the text: The conditions for the assay were taken from Applied and Environmental Microbiology 2004, 70, p 1874-1881.

T1 sequence (P44886 whole entry): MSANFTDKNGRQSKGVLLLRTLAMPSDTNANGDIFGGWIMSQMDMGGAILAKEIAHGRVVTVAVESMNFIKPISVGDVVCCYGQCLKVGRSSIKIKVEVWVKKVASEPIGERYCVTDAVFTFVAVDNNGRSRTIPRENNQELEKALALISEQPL

For the compound `CC(C)(COP(=O)(O)OP(=O)(O)OC[C@H]1O[C@@H](n2cnc3c(N)ncnc32)[C@H](O)[C@@H]1OP(=O)(O)O)[C@@H](O)C(=O)NCCC(=O)NCCSC(=O)CCCCCC(=O)O` [pimeloyl-CoA], the “hydrolysis to pimelic acid” value in [1] was “Complete hydrolysis”.
Consider `CC(C)(COP(=O)(O)OP(=O)(O)OC[C@H]1O[C@@H](n2cnc3c(N)ncnc32)[C@H](O)[C@@H]1OP(=O)(O)O)[C@@H](O)C(=O)NCCC(=O)NCCS` [CoASH], for which, in assay [2], the “inhibition of the reaction by CoASH” value is on record as “not inhibited”. Also, the “inhibition with free CoASH” value in [3] and in assay [4] was “no inhibition” each time.
On to `C[C@H](C(=O)O)[C@@H](N)C(=O)O` (racemic) [DL-threo-beta methyl aspartate], for which the “conversion to mesaconic acid” value in [5] and in assay [6] was “complete conversion” each time. Besides, in assay [7], the “lyase activity (mesaconic acid formation)” value is “No activity”.
As for `O=C(O)CCCCCC(=O)O` [Pimelic acid], the “reduction in activity in the presence of pimelic acid” value in assay [8] is recorded as 30%. The relative activity in assay [9] was 100%. The “NADPH consumption (uncorrected)” value in [10] (50 mM substrate, rCAR cell free extract 4.3 g/L whole cell equivalents, pH 7.5, ~20 deg C, change in absorbance over time) was −0.00096. Further, the “NADPH consumption (corrected for background)” value in [10] (as uncorrected, corrected with negative control (BL21 empty vector) rate) is −0.00103. In addition, the “activity relative to the activity for benzoic acid” value in [10] (reduction to pimelic acid semialdehyde) was greater than 100%.
